Measured values: US20100159528A1, “POLYMERASE STABILIZATION” (GE HEALTHCARE BIO-SCIENCE CORP., priority 2007, published 2010)

Legend:
DNA polymerase [1] = tested on: DNA polymerase
Experimental: An enzyme will have a maximal activity rate, which is preferably measured under conditions of saturating substrate concentration and at a selected set of environmental conditions including temperature, pH and salt concentration. For the DNA polymerases described herein, preferred conditions for measuring activity are 25 mM TAPS (tris-hydroxymethyl 25 methylaminopropane sulfonic acid) buffer, pH 9.3 (measured at 25° C.), 50 mM KCl, 2 mM MgCl2, 1 mM 2- mercaptoethanol, 0.2 mM each of dGTP, dCTP, dTTP, 0.2 mM [α-33P]-dATP (0.05-0.1 Ci/mmol) and 0.4 mg/mL activated salmon sperm DNA. The reaction is allowed to proceed at 74° C. Exemplary methods for measuring the DNA polymerase activity of an enzyme under such 30 conditions are provided hereinafter.
(§1) The stabilization functions of these two detergents are tested for δJSER DNA polymerase as well. […] In addition, the stabilization effects of these two detergents on DNA polymerase were also tested in the activity assay and thermostability assay.

δJSER DNA polymerase = assay: Stabilization/activation test for δJSER DNA polymerase; assay type: biochemical, JSER; conditions: compared with the effect on Tba
Experimental: as §1

Tba DNA polymerase = assay: PCR assay for detergents screening: amplification of a 1 kb λDNA fragment with Tba purified and stored without detergents; assay type: biochemical, Thermococcus barossii; conditions: for % Activity relative to TWEEN ® 20: PCR yield of 1 kb λDNA fragment, Agilent Bioanalyzer; for PCR yield higher than the positive control (TWEEN® 20): PCR reactions containing the detergent; for stabilization and activation of DNA polymerase (in words): detergent added into PCR reaction mix at 0.01% and 0.1% (FIG. 2)
Experimental: In this experiment, two lots of DNA polymerase that were purified and stored in buffers with/without detergents were tested. Each of the tested DNA polymerase was first diluted into 20 folds in buffers with and without of TWEEN® 20, respectively, prior to PCR and then equal units of enzyme was added into PCR mix. PCRs were performed in 25 μl volume in with 200 nM of forward and reverse primers, 200 μM dNTP, 1.0 unit of Tba and 1.0 ng template DNA. 1 kb human genomic DNA and 1 kb lambda DNA fragments were amplified. Reaction buffer contains 10 mM Tris-HCl, pH 9.0, 50 mM KCl, and 1.5 mM MgCl2. The PCR reaction was started by 2 minutes initial heating at 95° C., followed by 35 cycles with 95° C. for 30 s, 55° C. 30 s, and 72° C. for 60 s, and then final extension at 72° C. for 5 min. The PCR products were analyzed with Agilent Bioanalyzer.
The PCR assay was used for the detergents screening. The tested detergents were first dissolved in molecular biology grade water and neutralized to pH7 with a sodium hydroxide solution to make final concentration of 5% (W/V) stock solutions. The 5% detergent solutions were then used for the screening by either adding them into enzyme dilution buffer or spiked into PCR mix. The amplification of a 1 kb λDNA fragment was used test the effect of each detergent on the Tba stability and activity. The PCR conditions are the same as described earlier. Tba that was purified and stored in the absence of detergents was used for the tests. The tested detergents were spiked into the PCR reactions at a final concentration of 0.01%, 0.05%, and 0.1%, respectively. The PCR yields were quantitated by Agilent Bioanalyzer.

DNA polymerase [2] = conditions: for effect of high detergent concentration on stability and activity: Concentrations above 0.5% (W/V)
Experimental: For ♦, each detergent is present at the indicated amount.
as §1

[3] = Detergent Conc. 0.01% in PCR reaction
[4] = Detergent Conc. 0.05% in PCR reaction
[5] = Detergent Conc. 0.10% in PCR reaction

Substance | stabilization effect in the activity assay compared with TWEEN® 20 (DNA polymerase [1]) | activation of δJSER DNA polymerase (δJSER DNA polymerase) | % Activity relative to TWEEN ® 20 (Tba DNA polymerase; [3]) [%] | % Activity relative to TWEEN ® 20 (Tba DNA polymerase; [4]) [%] | % Activity relative to TWEEN ® 20 (Tba DNA polymerase; [5]) [%] | PCR yield higher than the positive control (TWEEN® 20) (Tba DNA polymerase) | stabilization and activation of DNA polymerase (in words) (Tba DNA polymerase) | stabilization effect in the thermostability test compared with TWEEN® 20 (DNA polymerase [2]) | DNA polymerase remaining active after heating (DNA polymerase [2]; 95° C., 15 minutes, 1x PCR buffer, compared with NP40 and TWEEN® 20 (FIG. 3)) | effect of high detergent concentration on stability and activity (DNA polymerase [2]) | formation of PCR products depending on detergent in the enzyme dilution buffer (Tba DNA polymerase; Tba diluted 20 fold in buffer with/without TWEEN® 20, 1 kb λDNA and human genomic DNA fragments (FIG. 1))
polyoxyethylene nonylphenol ether, phosphate [RHODAFAC™ RE-960] | same or better stabilization effects | same activation | 130.7 | 165.8 | 167.1 | about 30% | work very well in stabilization and activation of DNA polymerase | same or better stabilization effects | more DNA polymerase remains active | do not improve stability but do not decrease activity | 
TWEEN® 20 [reference compound] |  |  |  |  |  |  |  |  |  |  | PCR products were only obtained from the reactions that the enzymes were diluted in a buffer containing the detergent
polyoxyethylene tridecyl ether, phosphate [RHODAFAC™ RS-960] | same or better stabilization effects | same activation | 101.8 | 167.9 | 178.6 | about 30% | work very well in stabilization and activation of DNA polymerase | same or better stabilization effects |  | do not improve stability but do not decrease activity | 
